# From US20200138829A1, “METHODS OF CANCER TREATMENT” (Ferro Therapeutics, Inc., priority 2017, published 2020)
# Counter-ions that a name gives are not always drawn. * marks the point of attachment. Cbz = O=C(OCc1ccccc1)*; CH2F = FC*
# Tests used:
# [1] = system: KP-4 pancreatic cancer cell line; assay: Cell viability assay (CellTiter Glo), KP-4; format: cell-based; conditions: KP-4 versus A549
# Description: (§1) Cell viability assay was performed to assess the potency of the ferroptosis inducer compounds in various cancer cell lines with K-Ras mutations. […] A series of 9 different concentrations of compound stocks (500×) were created by 3-fold serial dilution in DMSO. […] After 96 hours of incubation, 50 μL of CellTiter Glo reagent (Promega) was added to each well and luminescence was measured after 10 minutes using EnVision (PerkinElmer). […] […] IC50, relative IC50, or % of top inhibition was calculated.
# A549 cells [2] = assay: Combination proliferation assay with PKC activator, A549; format: cell-based; conditions: inducer at concentration with minimal or no effect alone
# Description: (§2) Cell viability assay was performed to assess the potency of the ferroptosis inducer compounds in various cancer cell lines with K-Ras mutations. Cells at a density of 1,000-10,000 cells/well were seeded in 96-well plates and incubated at 37° C. overnight. A series of 9 different concentrations of compound stocks (500×) were created by 3-fold serial dilution in DMSO. These compounds were further diluted in culture media and then added to cells so that the final DMSO concentration was equal to 0.25% or less. After 96 hours of incubation, 50 μL of CellTiter Glo reagent (Promega) was added to each well and luminescence was measured after 10 minutes using EnVision (PerkinElmer). K101A (a PKC activator) was used as the reference compound titrated from top concentration of 30 μM. All compounds were tested initially from 30 μM as the top concentration in duplicates (range of 4.6 nM-30 μM). […] Data was analyzed using XL-fit software (ID Business Solutions Ltd.). IC50, relative IC50, or % of top inhibition was calculated.
# (§3) Therefore, whether PKC activators synergize or antagonize with ferroptosis inducers can be tested empirically.
# Namalwa cell line = assay: Combination proliferation assay with PKC activator, Namalwa; format: cell-based
# Description: as §2, §3
# (§4) Therefore, it is of interest to test combination treatment of both classes of compounds in lymphoma cells.
# Mino cell line = assay: Combination proliferation assay with PKC activator, Mino; format: cell-based
# Description: as §2, §3, §4
# Panc2.13 cells = assay: Combination proliferation assay with PKC activator, Panc2.13; format: cell-based
# Description: as §2, §3
# Panc1 cells = assay: Combination proliferation assay with PKC activator, Panc1; format: cell-based; conditions: inducer up to 1 μM
# Description: as §2, §3
# KP-4 cells [3] = assay: Combination proliferation assay with PKC activator, KP-4; format: cell-based
# Description: as §2, §3
# Capan-1 cells [4] = assay: Combination proliferation assay with PKC activator, Capan-1; format: cell-based
# Description: as §2, §3
# KP-4 cells [5] = assay: Effect of ferroptosis or apoptosis inhibitor on RSL3- or Erastin-induced cell death, KP-4; conditions: KP-4; for effect on cell death induced by RSL3 or Erastin: co-treatment
# Description: as §2
# Ferroptosis inhibitors include: Ferrostatin-1 and Liproxstatin-1, inhibitors of ROS accumulation; Deferoxamine, an iron chelator; and PD146176, a 15-lipoxygenase inhibitor (see, e.g., Hofman et al., 2016, J Med Chem. March 10; 59(5):2041-53; Yang et al., 2016 Cell 26(3):165-176). The apoptosis inhibitor chosen was ZVAD (see, e.g. Wu et al., 2011, Cell Death and Differentiation 18:26-37). Ferroptosis inhibitors and ZVAD were first titrated as a single agent as shown in Example 1.
# [6] = system: A549, MiaPaCa-2, and KP-4; assay: Cell viability assay, comparison across A549, MiaPaCa-2 and KP-4; format: cell-based; conditions: single agent
# Description: as §2
# A549 cells [7] = assay: Effect of ferroptosis or apoptosis inhibitor on RSL3- or Erastin-induced cell death, A549; conditions: A549; ZVAD
# Description: as §2
# Ferroptosis inhibitors include: Ferrostatin-1 and Liproxstatin-1, inhibitors of ROS accumulation; Deferoxamine, an iron chelator; and PD146176, a 15-lipoxygenase inhibitor (see, e.g., Hofman et al., 2016, J Med Chem. March 10; 59(5):2041-53; Yang et al., 2016 Cell 26(3):165-176). […]
# [8] = system: A549 lung cancer cell line; assay: Cell viability assay (CellTiter Glo), A549; format: cell-based
# Description: as §1
# PSN-1 cells [9] = assay: Combination proliferation assay with PKC activator, PSN-1; format: cell-based
# Description: as §2, §3
# Capan-1 cells [10] = assay: Cell viability assay (CellTiter Glo), Capan-1; format: cell-based; conditions: Capan-1; 96 hours of incubation
# Description: (§5) Cell viability assay was performed to assess the potency of the ferroptosis inducer compounds in various cancer cell lines with K-Ras mutations. […] A series of 9 different concentrations of compound stocks (500×) were created by 3-fold serial dilution in DMSO. […] After 96 hours of incubation, 50 μL of CellTiter Glo reagent (Promega) was added to each well and luminescence was measured after 10 minutes using EnVision (PerkinElmer). […] IC50, relative IC50, or % of top inhibition was calculated. Next, RSL3, ML210, Erastin, and Auranofin were tested on additional K-RAS mutant pancreatic cell lines (Panc1, Panc6.03, Panc2.13, PSN-1, and Capan-1) in Table 1.
# PSN-1 cells [11] = assay: Cell viability assay (CellTiter Glo), PSN-1; format: cell-based; conditions: PSN-1; 96 hours of incubation
# Description: as §5
compound,measurement,setting,value
CO[C@H]1O[C@@H]2O[C@@]3(C)CC[C@H]4[C@H](C)CC[C@@H]([C@H]1C)[C@@]24OO3 [Artemether],selectivity for KP-4 over A549,[1],> 5 fold
CC[P](CC)(CC)=[Au][S]C1OC(COC(C)=O)C(OC(C)=O)C(CC(C)=O)C1OC(C)=O (stereo not shown),synergy with K101A or K102 to block proliferation,A549 cells [2],No synergy
same,synergy when combined with K101A or K102,Namalwa cell line,minor synergy
same,synergy when combined with K101A or K102,Mino cell line,moderate synergy
same,synergy with K101A or K102 to block proliferation,Panc2.13 cells,did not synergize
same,synergy with K101A or K102 to block proliferation,Panc1 cells,No synergistic effects
same,synergy when combined with K101A or K102,KP-4 cells [3],no synergy
same,synergy with K101A or K102 to block proliferation,Capan-1 cells [4],did not synergize
CCOC(=O)c1ccc(NC2CCCCC2)c(N)c1 [Ferrostatin-1],effect on cell death induced by RSL3 or Erastin,KP-4 cells [5]; Ferrostatin-1 at 3 μM,completely abrogated cell death
same,differential activity among three cell lines,[6],do not show differential activity
same,potency in blocking cell proliferation (in words),[6],not potent
"CC(=O)O[C@@]12C[C@@H](C)[C@@]3(O)[C@@H](C=C(CO)C[C@]4(O)C(=O)C(C)=C[C@@H]34)[C@@H]1C2(C)C [K101A, 12-deoxyphorbol 13-acetate]",% of top inhibition by K101A or K102 without ferroptosis inducer,Panc2.13 cells,~60%
O=C(O)c1cc(/N=N/c2ccc(S(=O)(=O)Nc3ccccn3)cc2)ccc1O [Sulfasalazine],synergy with K101A or K102 to block proliferation,A549 cells [2],No synergy
same,synergy with K101A or K102 to block proliferation,Panc2.13 cells,did not synergize
Clc1cccc(CN=C2Nc3ccccc3NC23CCNCC3)c1 [Liproxstatin-1],effect on cell death induced by RSL3 or Erastin,KP-4 cells [5]; Liproxstatin-1 at 304,completely abrogated cell death
same,differential activity among three cell lines,[6],do not show differential activity
same,potency in blocking cell proliferation (in words),[6],not potent
Cbz-Val-Ala-Asp-CH2F,effect on RSL3- or Erastin-induced cell death,KP-4 cells [5]; ZVAD at 30 μM,did not rescue
same,differential activity among three cell lines,[6],do not show differential activity
same,potency in blocking cell proliferation (in words),[6],not potent
same,effect on RSL3- or Erastin-induced cell death,A549 cells [7],did not rescue
C=CCNc1nc(NCC=C)nc(N2CCN(C(c3ccc(F)cc3)c3ccc(F)cc3)CC2)n1 [Almitrine],potency of inhibition of A549 cells (in words),[8],very weak inhibitors
Buthionine sulfoximine [BSO],effect on A549 cells,[8]; at very high concentration (>1 mM),minimal effects
COc1ccc(N(C(=O)CCl)C(C(=O)NCCc2ccccc2)c2cccs2)cc1Cl (stereo not shown) [ML162],selectivity for KP-4 over A549,[1],> 80 fold
C[C@H]1[C@H](OC(=O)CCC(=O)O)O[C@@H]2O[C@@]3(C)CC[C@H]4[C@H](C)CC[C@@H]1[C@@]24OO3 [Artesunate],synergy when combined with K101A or K102,KP-4 cells [3],moderate/minor synergy
c1ccc2c(c1)SCc1c-2[nH]c2ccccc12 [PD146176],effect on RSL3- or Erastin-induced cell death,KP-4 cells [5]; PD146176 at 0.504,partially reversed
same,differential activity among three cell lines,[6],do not show differential activity
same,potency in blocking cell proliferation (in words),[6],not potent
CC(=O)N(O)CCCCCNC(=O)CCC(=O)N(O)CCCCCNC(=O)CCC(=O)N(O)CCCCCN [Deferoxamine mesylate],effect on RSL3- or Erastin-induced cell death,KP-4 cells [5]; Deferoxamine,did not rescue
same,differential activity among three cell lines,[6],do not show differential activity
same,potency in blocking cell proliferation (in words),[6],not potent
CN(C)c1nc(N(C)C)nc(N(C)C)n1 [Altretamine],potency of inhibition of A549 cells (in words),[8],very weak inhibitors
Dihydroartemisinin,synergy with K101A (PKC activators) to block proliferation,PSN-1 cells [9],no synergy
same,IC50,Capan-1 cells [10],2.15 µM
same,IC50,PSN-1 cells [11],0.54 µM
same,synergy when combined with K101A or K102,KP-4 cells [3],moderate/minor synergy
"C/C=C(/C)C(=O)O[C@H]1C(C)=C[C@]23C(=O)[C@@H](C=C(CO)[C@@H](O)[C@]12O)[C@H]1[C@@H](C[C@H]3C)C1(C)C [K102, ingenol-3-angelate]",% of top inhibition by K101A or K102 without ferroptosis inducer,Panc2.13 cells,~60%
